The source of these data is patent US9907857B2, “Peptide having cell membrane penetrating activity” (EWHA UNIVERSITY-INDUSTRY COLLABORATION FOUNDATION, priority 2006, dated 2018).

Common to all, as to type: cell-based
Data set [1] relates to HeLa cells. The data set can be described thus: Cell penetrating efficiency of rhodamine-labelled TCTP-derived peptides, microplate fluorescence reader. The protocol:
N-terminus of each peptides was labeled with fluorescence dye, rhodamine and C-terminus was protected. Peptide purity (>95%) was determined by HPLC. Synthesis of the peptides was requested to PEPTRON, Inc.
HeLa cell line (ATCC) was propagated in DMEM (GIBCO) supplemented with 10% FBS (GIBCO) and 100 units/mL penicillin-streptomycin. Cells were grown in a 5% CO2 incubator at 37° C.
HeLa cells were cultured in 48-well plate until they were 70˜80% grown up before a day of the experiment. The cells were washed with DMEM of 37° C. twice, and TCTP-derived peptides synthesized in Example 2-1) were treated to the culture medium in a dose dependent manner (0, 1, 5, 10, 50, 100 μM), then the cells was incubated for 15 minutes or 2 hours in an CO2 incubator at 37° C.
After the incubation, the cells were washed in cool PBS three times and immediately measured by a microplate fluorescence reader (BIO-TEK instruments, Inc., Vermont, USA) at emission 530 nm and excitation 590 nm for a measurement of rhodamine of intracellular uptake marker. The sensitivity of reader was set at 100 as a basic mode, but was lowered to 75 if the fluorescent signals were too strong. All experiments were conducted in triplet repeats for reproducibility (FIG. 2 and FIG. 3).

The test system of data set [2] is HeLa cells. The data set can be described thus: Cell penetrating activity of FITC-labelled mutant peptides, mean fluorescence intensity by FACS. Conditions: 2 hours, FACS. As to the method: N-terminus of each peptide was labeled with fluorescence dye, FITC and C-terminus was protected. Peptide purity (>95%) was determined by HPLC. Synthesis of the peptides of the present invention was requested to PEPTRON, Inc.
HeLa cell line was propagated in DMEM supplemented with 10% FBS and 100 units/mL penicillin-streptomycin. Cells were grown in a 5% CO2 incubator at 37° C.
HeLa cells were cultured in 6-well plate until they were 70˜80% grown up before a day of the experiment. The cells were washed with DMEM of 37° C. twice, and TCTP-derived peptides synthesized in Example 5-1) were treated to the culture medium in a dose dependent manner (0, 1, 10, 100 μM), then the cells was incubated for 2 hours in an CO2 incubator at 37° C.,
After the incubation, the cells were washed in cool PBS two times and treated with 1 mg/ml trypsin for 15 min at 37° C. to digest peptides attached on cell membrane and washed in PBS twice again. Then, the cells were analyzed by FACS at emission 510 nm and excitation 530 nm for a measurement of FITC of intracellular uptake marker (FIGS. 7, 8 and 9). Intracellular translocation efficiency of mutant peptides, TCTP-CPP#1-35(SEQ ID Nos.: 20-54) was compared to wild type(WT), TCTP(1-10)(SEQ ID No.: 1) and control peptide, TAT(48-57).

For data set [3], the system named is HeLa cells. The settings on record: treated for 48 hours; concentration not restated, 100 μM implied. The protocol:
To confirm whether cell penetrating activity of the peptides of present invention was due to membrane weakness as a result of cytotoxicity, we measured cytotoxicity as follows. HeLa cells were cultured in 96-well plate until they were 70% grown up before a day of the experiment. Control TAT 48-57 and the mutant peptides at concentrations of 0, 1, 10, 100 μM were treated to DMEM supplemented with 10% FBS for 24 and 48 hours. After 2 hours in addition of 10 μl of CCK-8 to each well, absorbance at 450 nm was measured by KC4 plate reader(FIGS. 10, 11 and 12). As a result of toxicity at 100 μM for 24 hours, cytotoxicity of SEQ ID No.: 1, TCTP(1-10) was about 14% compared with control, and cytotoxicities of the other peptides, TCTP-CPP#3, 7 and 8 were insignificant considering standard deviation. When treated for 48 hours, all peptides had no cytotoxicity at 1 and 10 μM while cytotoxicities of TAT, TCTP(1-10), TCTP-CPP#3, 7 and 8 were about 53.8, 28.3, 46.2, 8.2 and 25.6%, respectively. […] Also, all of TCTP-CPP#27-35 had no cytotoxicity at 1 μM and 10 μM but had cytotoxicity at 100 μM.

On to “GRKKRRQRRR (Human immunodeficiency virus; (1)..(10) 48-57 amino acid residue of TAT) [TAT(48-57), Control peptide, well-known PTD from HIV-1 TAT, reference compound]”, for which, in data set [1] (0-100 μM, 15 minutes or 2 hours), the “intracellular translocation, dependence on concentration” value was “transduced into cell in a dose and time-dependent manner”. The “concentration at which translocation was saturated” value in data set [1] (2 hour treatment (FIG. 3)) was no less than 1 µM. Also, in data set [2] (peptide at 10 μM), the “mean fluorescence intensity (MFI) relative to WT, MFI of WT at 10 μM set to 1” value is given as 6.1 times. For the same sequence, the “mean fluorescence intensity (MFI) relative to WT” value in data set [2] (peptide at 100 μM) is 94.75 times. In addition, in data set [3], the cytotoxicity result is recorded as “about 53.8%”.
